# Patent US10137081B2, “Device and method for sustained release of antipsychotic medications” (DELPOR, INC., priority 2012, dated 2018)
# Tests used:
# [1] = general statement in the description; cited from earlier work
# [2] = for period of constant, zero-order in vitro release of risperidone: FIGS. 4, 5
# Method: Singly capped devices were weighed and tared on a conventional laboratory balance. The open end of each device was fitted with a small funnel, and each salt form of drug to be tested was loaded into the reservoir in small (about 10-about 50 mg) portions. When necessary, each added portion of solid was tamped down to the base of the reservoir prior to the next addition. This process was repeated until a specific loading target was met (generally about 250-500 mg). The filled reservoir was then capped with either a closed PEEK cap or a cap configuration identical to that used on the first end of the device, vide supra.
# The assembled devices were weighed and then loaded into a custom-built vacuum hydrator. The air space within each device was evacuated by placing the device in a vacuum (<0.5 torr) for no less than 30 min. The devices were then back-filled with phosphate-buffered saline (pH 7.4) applied with a back pressure of 5-10 psi above atmospheric pressure for at least one hour. The devices were then retrieved from the hydration apparatus, wiped with a tissue to absorb any external fluid, weighed, and transferred to petri dishes containing buffer for the drug output assay, vide infra. The success of the hydration step was determined by the measuring the increase in mass before and after hydration.
# The dish was placed in an incubator with pCO2 adjusted to give an average buffer pH of 7.4. Approximately once per day, the dishes were retrieved from the incubator. Each device was transferred to a new dish containing an equivalent amount of buffer and then returned to the incubator.
# The retained receiving buffer samples were acidified with 3.0 mL of 0.1 M HCl and allowed to stand for approximately 1 hour. An aliquot of each sample (generally 100 μL) was transferred to a single well of a UV-transparent 96 well plate along with 100 μL of 0.1 M HCl diluent. After plating, the absorbance of each well was recorded at 270 nm using a Molecular Devices spectrophotometer. The absorbances were converted into concentrations (and ultimately output mass per day) by comparison to a standard curve. Samples that absorbed outside of the linear range of the instrument were diluted and re-read, as appropriate.
# [3] = In vivo pharmacokinetics, device as subcutaneous implant in rats
# Method: Six male Sprague Dawley rats (Charles River; Hollister, Calif.) of an initial weight of approximately 250-280 grams were administered a device as a subcutaneous implant. This study complied with all applicable sections of the Final Rules of the Animal Welfare Act regulations (9 CFR), the Public Health Service Policy on Humane Care and Use of Laboratory Animals, the Guide for the Care and Use of Laboratory Animals. […] All animals were weighed and the hair was clipped and removed from the dorsal area prior to dose administration. All animals were anesthetized with isoflurane via an induction chamber and maintained in the appropriate plane of anesthesia using isoflurane inhalant (1-3%) and a vaporizer. The dorsal area of the animal was prepared for implantation using appropriate surgical scrub and ethanol. Aseptic technique was used during implantation. A small incision was made in the skin and a single device implant gently placed in the dorsal subcutaneum using a sterile implanter tool. Following administration, the skin incision was closed with sterile suture. The animals were given an appropriate dose of analgesia (see table below) and allowed to recover.
# The animals were euthanized following the blood collection.
# Body weights were measured on the day of test article administration and weekly thereafter.
# Blood volumes of approximately 0.8 to 1.0 mL were collected at each time point, placed into Vacutainer tubes containing EDTA, and kept on wet ice until processing. For preparation of plasma, tubes were mixed by gentle inversion several times and centrifuged under refrigeration (approximately 2-8° C.) for approximately 15 minutes at approximately 2800 rpm (˜1000×g). Plasma was split into two approximately equal aliquots and transferred to labeled screw-top tubes for storage, and stored at approximately (−60° C. to −80° C.) until shipment to the analytical lab.
# Using aseptic technique, the implant site was opened up and a photo of the implant field was taken. Blood draws were made four hours and 24 hours after implant removal. Any observations were recorded.
# Bioanalytical measurements of active moiety (risperidone+9-OH risperidone) were conducted by Integrated Analytical Solutions (Berkeley, Calif.) using an LCMS method validated to resolve risperidone and 9-OH risperidone in rat plasma with a lower limit of quantitation (LLQ) of 0.5 ng/mL for each analyte.
# Plasma concentrations were normalized to initial body weight for each time point and plotted versus time.
# [4] = subcutaneous implant, FIGS. 7, 8
molecule,measurement,setting,value
dodecanoate,solubility in water,[1],not appreciably more soluble than the free base form
"Cc1nc2n(c(=O)c1CCN1CCC(c3noc4cc(F)ccc34)CC1)CCCC2.O=C(O)c1ccccc1 [risperidone benzoate, reference compound]",in vitro output pattern relative to the therapeutic window,"[2]; FIG. 2, upper limit 2.5 mg/day",rises to high levels before falling
"Cc1nc2n(c(=O)c1CCN1CCC(c3noc4cc(F)ccc34)CC1)CCCC2 [risperidone free base, risperidone, reference compound]",solubility in water,[1],extremely insoluble in water
risperidone hexanoate,period of in vitro release of risperidone within the therapeutic range,"[2]; Example 6, devices 172, 180, 360 and 364, followed for 90-100 days, FIG. 5",≥ 90 days
same,period of in vitro release at a constant rate within the therapeutic range,"[2]; Example 7, followed for 6 months, FIG. 6",6 months
same,"period of constant, zero-order in vitro release of risperidone",[2],30 to 90 days
same,examination of the implant site,[3]; after 118 days of subcutaneous implantation,no evidence of inflammation or other adverse tissue responses
same,plasma level of active moiety following removal of the device,"[3]; below LLQ, 4 h and 24 h after implant removal at day 118",< 0.5 ng/mL
same,plasma level of active moiety (risperidone plus 9-OH risperidone),"[3]; subcutaneous implant, 290-300 mg salt per device, normalized to initial body weight, constant level after 4 hour burst",about 20 ng/mL
same,period of constant plasma level of active moiety,[3]; [4],118 days
same,period of constant plasma level of active moiety,"[3]; subcutaneous implant, until device removal, FIG. 7",about 4 months
CCCCC(=O)O.Cc1nc2n(c(=O)c1CCN1CCC(c3noc4cc(F)ccc34)CC1)CCCC2 [risperidone pentanoate],initial period in which in vitro output is slightly above the therapeutic window,"[2]; FIG. 4, upper limit 2.5 mg/day",2 weeks
same,"period of constant, zero-order in vitro release of risperidone",[2],at least 60 days
same,period of constant plasma level of active moiety,[3]; [4],greater than 60 days
